Assay results as given in patent US10703761B2, “Bile acid receptor modulators and methods of use thereof” (City of Hope, priority 2016, dated 2020).

Key:
[1] = molecular target: T1, Gal4 DNA binding domain FXR ligand-binding domain fusion protein (Homo sapiens, UniProt Q96RI1); assay: Gal4 DBD-FXR LBD chimera transactivation assay in HEK 293 cells; type: cell-based; conditions: CDCA 100 μM, compounds 10 μM
T1 construct: expressed in transfected cells; host or cells: HEK 293
T1 sequence (Q96RI1 262-486 limits assumed): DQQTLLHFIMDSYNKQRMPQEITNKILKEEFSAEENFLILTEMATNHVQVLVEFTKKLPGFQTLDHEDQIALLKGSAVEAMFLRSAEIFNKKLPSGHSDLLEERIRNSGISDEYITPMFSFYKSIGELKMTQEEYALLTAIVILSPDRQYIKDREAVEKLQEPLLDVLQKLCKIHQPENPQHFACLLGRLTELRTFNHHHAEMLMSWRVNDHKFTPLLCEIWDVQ
Method: FIG. 10: Berberine derivatives inhibit FXR transactivation. HEK 293 cells were cotransfected with a luciferase reporter plasmid containing five copies of the Gal4 binding site and an expression vector for a Gal4 DNA binding domain FXR ligand-binding domain fusion protein, along with a CMX-β-gal internal control. CDCA: 100 μM, Compounds: 10 μM
In the presence of 100 μM CDCA, a concentration approximately threefold above that required for half-maximal activation of FXR, 10 μM selected berberine derivatives decreased FXR transactivation by nearly 50%.

FXR-RXR heterodimers = molecular target: T2, FXR-RXR heterodimers (Homo sapiens, UniProt Q96RI1); assay: Specific DNA binding by FXR-RXR heterodimers in vitro; type: biochemical; conditions: data not shown
T2 sequence (Q96RI1 1-486): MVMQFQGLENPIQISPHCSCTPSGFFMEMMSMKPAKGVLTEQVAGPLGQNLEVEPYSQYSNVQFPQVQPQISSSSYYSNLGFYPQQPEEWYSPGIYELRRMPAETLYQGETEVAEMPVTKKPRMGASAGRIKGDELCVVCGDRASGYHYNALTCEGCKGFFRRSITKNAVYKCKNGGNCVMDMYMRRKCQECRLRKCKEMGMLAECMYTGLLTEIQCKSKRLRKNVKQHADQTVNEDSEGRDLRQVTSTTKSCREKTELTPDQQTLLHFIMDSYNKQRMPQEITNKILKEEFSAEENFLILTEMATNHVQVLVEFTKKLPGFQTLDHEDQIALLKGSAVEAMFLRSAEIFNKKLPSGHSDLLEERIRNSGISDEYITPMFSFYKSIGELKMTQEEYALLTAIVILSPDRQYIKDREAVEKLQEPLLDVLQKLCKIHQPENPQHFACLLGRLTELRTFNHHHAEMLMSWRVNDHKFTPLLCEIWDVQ
T2 sequence (P19793 1-462 partner): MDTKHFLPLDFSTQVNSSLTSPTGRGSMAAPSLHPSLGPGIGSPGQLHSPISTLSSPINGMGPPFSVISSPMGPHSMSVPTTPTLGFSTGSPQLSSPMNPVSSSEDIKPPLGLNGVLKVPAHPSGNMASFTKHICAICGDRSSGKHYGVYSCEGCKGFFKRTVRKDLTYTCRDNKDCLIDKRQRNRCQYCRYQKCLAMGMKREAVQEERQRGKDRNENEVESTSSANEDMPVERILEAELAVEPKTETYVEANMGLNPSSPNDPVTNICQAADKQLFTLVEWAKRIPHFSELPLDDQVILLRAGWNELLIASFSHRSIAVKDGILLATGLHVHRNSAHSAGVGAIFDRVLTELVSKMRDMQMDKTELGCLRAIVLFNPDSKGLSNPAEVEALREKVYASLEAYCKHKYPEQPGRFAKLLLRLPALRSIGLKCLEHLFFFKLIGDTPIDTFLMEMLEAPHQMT

[2] = system: metabolic nuclear receptors; assay: Activation of metabolic nuclear receptors compared with native ligands; type: cell-based; conditions: 10 μM
Method: FIG. 2(A) HEK293 cells lacking or overexpressing TGR5 were treated with increasing doses of berberine for 16 hours and TGR5-reporting activity was evaluated using luciferase assays. FIG. 2(B) Ability of berberine to activate metabolic nuclear receptors was evaluated in comparison to native ligands. All ligands were used at a 10 μM concentration.
Our current efforts are also aimed at extending these studies in vivo to murine type II diabetic models (using high fat diet feeding) with and without the TGR5 receptor. Confirmation of the berberine effect was evaluated using q-RT-PCR to assess activated TGR5 target genes including inflammatory gene expression and deiodinase-2.

FXR = molecular target: T3, FXR (Homo sapiens, UniProt Q96RI1); assay: FXR luciferase reporter assay, transient transfection with a synthetic FXR responsive reporter plasmid in HEK293 cells; type: cell-based; conditions: compound alone, compared with GW4064
T3 construct: expressed in transfected cells; host or cells: HEK293 (transient)
T3 sequence (Q96RI1 1-486): T2 sequence (Q96RI1 1-486)
T3 sequence (P19793 1-462 partner): T2 sequence (P19793 1-462 partner)
Method: Effect of berberine derivatives and γ-aminobutyric acid derivative on FXR inhibition was initially assessed using transient transfections with a synthetic FXR responsive reporter plasmid. HEK 293 Cells were treated with vehicle alone or 100 μM CDCA with or without compounds, as indicated. Results are luciferase expression normalized using the β-gal internal control.
TGR5-reporting activity was evaluated by luciferase assay. Treatments were performed in quadruplicate and normalized with β-galactosidase. HEK293 cells were transfected with FXR and RXRα, and FXRE-containing luciferase construct. Cells were treated with 10 μM of indicated compounds; luciferase was measured and normalized with β-galactosidase.
To evaluate TGR5 activity of compounds, cells were transfected 100 ng pCRE-luc reporter along with pCMV-galactosidase (10 ng) as an internal control for normalization of transfection efficiency. Plasmids were complexed with […] of Fugene 6 reagent (Promega, Madison, Wis.) in OptiMEM (Invitrogen, Carlsbad, Calif.) and cells were transfected for 18 h. The following day, cells were treated with vehicle and appropriate ligand as indicated. Luciferase and β-galactosidase activities were assayed 6 h later using Luciferase Assay System (Promega) and Galacto-Star (Applied Biosystems, Foster City, Calif.) reagents, respectively, and a MLX luminometer (Dynex Technologies, Chantilly, Va.). To evaluate the FXR activity of compounds, HEK293 cells were transfected with 25 ng of farnesoid X receptor expression plasmid (pCMX-hFXR), 25 ng of retinoid X receptor expression plasmid (pCMXhRXR), 100 ng of reporter plasmid (pEcREx6-TK-Luc), and 10 ng of pCMV-b-galactosidase as an internal control in each well, using Fugene 6 reagent. Approximately 18 h after transfection, cells were incubated for 12 h with different concentrations of each.

[3] = in vivo; cited from earlier work
db/db mice = conditions: mouse, in vivo; cited from earlier work

Question: For `COc1ccc2cc3[n+](cc2c1OC)CCc1cc2c(cc1-3)OCO2` [berberine], which “Transactivation by GAL4 DBD-FXR LBD chimera” value [1] is on record?
Answer: Its value is “did inhibit transactivation”.

Question: What about the “Specific DNA binding by FXR-RXR heterodimers” value (FXR-RXR heterodimers) of the same compound?
Answer: Its value is “did not affect specific DNA binding”.

Question: And the “Activation of other metabolic nuclear receptors” value [2]?
Answer: Its value is “does not activate other metabolic nuclear receptors”.

Question: And the “FXR activity of compound alone (agonism)” value (FXR)?
Answer: Its value is “failed to activate FXR”.

Question: What about the “FXR activity of compound alone (agonism)” value (FXR; listed as Berberine) of the same compound?
Answer: The value was “no effect on FXR activity”.

Question: And the “Plasma concentration / gut restriction” value [3]?
Answer: Its value is “keeps low concentration in plasma”.

Question: What about the “Metabolic properties in db/db mice” value (db/db mice) of the same compound?
Answer: The value was “insulin sensitizing as well as weight- and lipid-lowering properties”.
